These results are taken from patent publication US20150306096A1, “8'-HYDROXY-DIHYDROERGOTAMINE COMPOUNDS AND COMPOSITIONS” (MAP Pharmaceuticals, Inc., priority 2012, published 2015).

Test in all cases: Radioligand competition binding and kinetics, CHO-K1 membranes
For orientation: Loss of bound radioactivity is the signal in a displacement assay; it reports binding, not function.

One assay addresses T1, human 5-HT1B receptor (Homo sapiens, UniProt P28222).
T1 construct: purchased Euroscreen; host or cells: CHO-K1
As for the experimental part:
(§1) For kinetics of radioligand competitive binding, serial dilutions were performed from master solution in 100% DMSO to obtain intermediate concentrations 200-fold higher than the concentrations to be tested. Each test sample was diluted 100-fold in the assay buffer and dispensed into the test plate.
5-HT1B Radioligand Binding Assay
Assay buffer: 50 mM Tris (pH 7.4), 12.5 mM MgCl2, 0.1% ascorbic acid, 1 mM EDTA Washing buffer: 50 mM Tris (pH 7.4) Membrane: recombinant CHO-K1-5-HT1B membranes thawed on ice and diluted in assay buffer (7 μg/well)
Ligand: 5-CT (Tocris, 0458)
Radioligand: [^3H]-CT (Perkin Elmer, TRK1038, diluted in assay buffer for a final concentration of 0.6 nM) Filter plate: GF/B Unifilter plate (Perkin Elmer, 6005177) presoaked in 0.5% PEI for 2 hours at RT.
(§2) Determination of the Kon constant. Radioligand association kinetics on each receptor were performed by adding in the wells of a 96 well plate 50 μL of radioligand and 50 μL of membrane extracts. The samples were incubated for the times reported in Table 3 below at a temperature optimized for each receptor and filtered over a filter plate. After washing the filters 5 times with 0.5 mL of ice-cold washing buffer, 50 μL of Microscint 20 (Packard) were added to the filters and the plates were incubated 15 min on an orbital shaker and then counted for 1 min/well. This allowed determination of the kobs for each radioligand. Association kinetics were performed at 5 different radioligand concentrations optimized for each receptor (see Table 3 below) to determine 5 different kobs. The different kobs were then plotted against the [radioligand] and the K. was calculated using the following equation: kon=(kobs−koff)[radioligand].
(§3) Determination of the Koff constant. Radioligand dissociation kinetics on each receptor were performed by adding in the wells of a 96 well plate 45 μL of radioligand and 45 μL of membrane extracts. The samples were incubated as reported in Table 4 below at a temperature optimized for each receptor until binding equilibrium was reached as determined by the association kinetics experiment. Then, 100 μL of cold competitor (reference ligand) were added at a 200 fold excess (final concentration) for the times reported in Table 4 at the optimized temperature. The samples were then filtered over a filter plate. After washing the filters 5 times with 0.5 mL of ice-cold washing buffer, 50 μL of Microscint 20 (Packard) were added to the filters and the plates were incubated 15 min on an orbital shaker and then counted for 1 min/well. This allowed determination of the koff for each radioligand.
Determination of IC50 and Ki constant for each test compound. Radioligand competition binding on each receptor were performed by adding in the wells of a 96 well plate […] of test compound at increasing concentration as reported in Table 5 below, 25 μL of radioligand and 25 μL of membrane extracts. The samples were incubated for 60 min (or 4 hours for a second experiment on 5-HT2B receptors) at a temperature optimized for each receptor and then filtered over a filter plate. After washing the filters 5 times with 0.5 mL of ice-cold washing buffer, 50 μL of Microscint 20 (Packard) were added to the filters and the plates were incubated 15 min on an orbital shaker and then counted for 1 min/well. The test compounds were tested in duplicate at the nanomolar concentrations reported below in Table 5.
Determination of kon and koff constants for each test compound. Each compound was first assessed in a pilot experiment to evaluate its effect on the kinetic binding of each receptor-radioligand pair. These pilot experiments were performed at on compound concentration and were composed of 10 time-points measurements in duplicate (2, 5, 10, 20, 30, 45, 60, 90, 120 and 150 minutes).

A further assay concerns the target T2, human 5-HT1A receptor (Homo sapiens, UniProt P08908).
T2 construct: purchased Euroscreen; host or cells: CHO-K1
T2 sequence (P08908 1-422): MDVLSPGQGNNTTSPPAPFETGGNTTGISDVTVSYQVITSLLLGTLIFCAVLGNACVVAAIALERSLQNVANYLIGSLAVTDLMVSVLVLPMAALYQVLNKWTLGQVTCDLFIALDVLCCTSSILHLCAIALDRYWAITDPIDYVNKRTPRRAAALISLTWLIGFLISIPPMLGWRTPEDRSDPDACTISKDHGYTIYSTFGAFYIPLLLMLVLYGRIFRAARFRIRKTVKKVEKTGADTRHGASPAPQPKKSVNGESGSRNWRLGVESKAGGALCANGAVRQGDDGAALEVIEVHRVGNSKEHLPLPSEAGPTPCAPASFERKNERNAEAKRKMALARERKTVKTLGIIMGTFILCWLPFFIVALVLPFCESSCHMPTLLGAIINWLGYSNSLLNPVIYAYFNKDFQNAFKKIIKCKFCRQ
As for the experimental part: as §1
as §2, with “Association kinetics were performed at 5 different radioligand concentrations optimized for each receptor (see Table 3 below) to determine 5 different kobs.” left out
Determination of the Koff constant. […] The samples were incubated as reported in Table 4 below at a temperature optimized for each receptor until binding equilibrium was reached as determined by the association kinetics experiment. […] After washing the filters 5 times with 0.5 mL of ice-cold washing buffer, 50 μL of Microscint 20 (Packard) were added to the filters and the plates were incubated 15 min on an orbital shaker and then counted for 1 min/well. […]
(§4) Determination of IC50 and Ki constant for each test compound. […] After washing the filters 5 times with 0.5 mL of ice-cold washing buffer, 50 μL of Microscint 20 (Packard) were added to the filters and the plates were incubated 15 min on an orbital shaker and then counted for 1 min/well. […]
(§5) Determination of kon and koff constants for each test compound. Each compound was first assessed in a pilot experiment to evaluate its effect on the kinetic binding of each receptor-radioligand pair. […]

The target in a further assay is T3, human 5-HT2B receptor (Homo sapiens, UniProt P41595).
T3 construct: purchased Euroscreen; host or cells: CHO-K1
T3 sequence (P41595 whole entry): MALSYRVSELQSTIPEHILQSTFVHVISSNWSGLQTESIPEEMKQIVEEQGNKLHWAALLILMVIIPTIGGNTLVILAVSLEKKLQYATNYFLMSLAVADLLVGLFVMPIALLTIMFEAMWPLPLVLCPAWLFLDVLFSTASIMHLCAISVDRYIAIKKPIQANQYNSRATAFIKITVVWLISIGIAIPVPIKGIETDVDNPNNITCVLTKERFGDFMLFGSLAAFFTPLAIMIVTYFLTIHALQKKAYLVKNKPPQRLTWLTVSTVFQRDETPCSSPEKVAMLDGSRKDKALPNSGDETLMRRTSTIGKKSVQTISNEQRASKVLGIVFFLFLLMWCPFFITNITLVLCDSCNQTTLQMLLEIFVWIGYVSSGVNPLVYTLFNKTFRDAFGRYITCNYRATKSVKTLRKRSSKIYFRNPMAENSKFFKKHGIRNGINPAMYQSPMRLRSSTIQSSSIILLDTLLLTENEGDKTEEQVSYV
As for the experimental part: as §1
Ligand: 5-HT (Sigma, H-9523)
as §2, §3, §4, §5

Molecules are shown by their SMILES. Where two headings read alike, the source gives them in different places.

T1 sequence (P28222 whole entry): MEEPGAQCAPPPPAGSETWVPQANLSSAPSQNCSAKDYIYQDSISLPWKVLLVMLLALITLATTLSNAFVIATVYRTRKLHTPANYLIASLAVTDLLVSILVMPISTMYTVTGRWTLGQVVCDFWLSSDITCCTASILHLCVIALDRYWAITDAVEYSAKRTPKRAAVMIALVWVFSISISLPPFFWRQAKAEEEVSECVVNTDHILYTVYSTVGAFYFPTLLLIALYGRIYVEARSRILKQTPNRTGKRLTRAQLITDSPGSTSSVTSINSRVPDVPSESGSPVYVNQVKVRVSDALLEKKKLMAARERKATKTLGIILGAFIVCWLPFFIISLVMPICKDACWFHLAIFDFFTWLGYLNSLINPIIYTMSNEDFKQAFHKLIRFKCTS

On to `CN1C[C@H](C(=O)N[C@]2(C)O[C@@]3(O)[C@@H]4CCC(O)N4C(=O)[C@H](Cc4ccccc4)N3C2=O)C[C@@H]2c3cccc4[nH]cc(c34)C[C@H]21` (stereo partly shown) [8′-OH DHE, 8′-Hydroxy-Dihydroergotamine], for which the “Avg Dissociation half-life” value at human 5-HT1B receptor (5-HT1B) was determined as 1.94 h. The “Avg Koff” value on human 5-HT1B receptor (5-HT1B) turned out to be 9.83e-05 s⁻¹. Moreover, the IC50 at human 5-HT1B receptor (5-HT1B, [3H]-CT, read-out: IC50 from binding assay) is 0.77 nM; on human 5-HT1A receptor (5-HT1A, [3H]-WAY100635, read-out: IC50 from binding assay), 0.43 nM; on human 5-HT2B receptor (5-HT2B, [3H]-Mesulergine, read-out: IC50 from binding assay) it was 7.73 nM.

Consider `CN1C[C@H](C(=O)N[C@]2(C)O[C@@]3(O)[C@@H]4CCCN4C(=O)[C@H](Cc4ccccc4)N3C2=O)C[C@@H]2c3cccc4[nH]cc(c34)C[C@H]21` [DHE, Dihydroergotamine], for which the half-maximal inhibitory concentration (IC50) came to 0.55 nM on human 5-HT1B receptor, 0.27 nM at human 5-HT1A receptor and 12.9 nM at human 5-HT2B receptor. Also, at human 5-HT1B receptor (5-HT1B), the “Avg Dissociation half-life” value came to 1.38 h. Also, the koff at human 5-HT1B receptor (read-out: Avg Koff) was 0.00014 s⁻¹.

As usually defined, the IC50 is the point on the concentration scale where inhibition reaches its midpoint. Broadly, the koff is the rate constant with which the complex falls apart.
